Laboratory results: patent US9814720B2, “Compositions and methods of inhibiting IL-17 expression of neutrophils” (priority 2014, dated 2017)

Legend:
IL-17A = IL-17A expression in IL-6/23-stimulated murine bone marrow neutrophils (qPCR, ELISA, intracellular flow cytometry); format: cell-based, C57BL/6 mice; conditions: discussion restatement, species not stated
Source text: Total bone marrow-derived cells were isolated from mouse femurs and tibias by flushing with RPMI and an 18-gauge needle. Erythrocytes were lysed with 1× lysis buffer (eBioscience), and bone marrow cells were separated on a Percoll (Fisher) gradient by density centrifugation (52%, 69%, and 78%). Cells at the 69-78% interface were harvested, and neutrophil purity (>98%) confirmed by flow cytometry and Wright-Giemsa staining. IL-17A protein production was quantified by 2-site ELISA, according to the manufacturer's directions (R&D Biosciences). Murine or human neutrophils were suspended at a density of 10^6 cells/ml and incubated with […] of recombinant mouse or human IL-6 and 2 μg/ml IL-23 in RPMI, and the cells were maintained for 1-3 h at 37° C. in 5% CO2. Various inhibitors were used for assessing STAT3 activation. […] For the determination of RORγt-dependent signaling, SR1001 (20 μM; Sigma) was used, which inhibits RORγt binding to the IL-17 promoter site. All inhibitors were added to neutrophils 2 h prior to recombinant IL-6 and IL-23 stimulation. […] Ten corneas were pooled and analyzed by intracellular flow cytometry. […] Cells were analyzed using a C6 Accuri flow cytometer (BD). […] The SYBR green system (Applied Biosystems, Carlsbad, Calif.) was utilized for quantitative PCR (qPCR) using ABI Biosystems. […]

IL-17RC [1] = test: IL-17RC gene expression by qPCR in IL-6/23-stimulated murine neutrophils; format: cell-based; conditions: IL-6/23 1 h, FIG. 6A
Source text: Total bone marrow-derived cells were isolated from mouse femurs and tibias by flushing with RPMI and an 18-gauge needle. Erythrocytes were lysed with 1× lysis buffer (eBioscience), and bone marrow cells were separated on a Percoll (Fisher) gradient by density centrifugation (52%, 69%, and 78%). Cells at the 69-78% interface were harvested, and neutrophil purity (>98%) confirmed by flow cytometry and Wright-Giemsa staining.
(§1) Murine or human neutrophils were suspended at a density of 10^6 cells/ml and incubated with […] of recombinant mouse or human IL-6 and 2 μg/ml IL-23 in RPMI, and the cells were maintained for 1-3 h at 37° C. in 5% CO2. Various inhibitors were used for assessing STAT3 activation. For STAT3, neutrophils were treated with either the STAT3-SH2 inhibitor, Stattic (20 μM) obtained from Tocris, or the JAK-1, 2 inhibitor, INC424, (aka Ruxolitinib; 20 μM (Selleck BioChem)). For the determination of RORγt-dependent signaling, SR1001 (20 μM; Sigma) was used, which inhibits RORγt binding to the IL-17 promoter site. All inhibitors were added to neutrophils 2 h prior to recombinant IL-6 and IL-23 stimulation.
(§2) Neutrophil and corneal cell RNA was extracted using the RNeasy mini kit according to the manufacturer's directions (Qiagen, Valencia, Calif.). The quality of RNA was checked by spectrophotometry, and only samples with a 260/280 ratio of 2.0 were used to generate cDNA. The SuperScript First Strand synthesis system (Invitrogen) was used to generate cDNA according to the manufacturer's directions.
(§3) The SYBR green system (Applied Biosystems, Carlsbad, Calif.) was utilized for quantitative PCR (qPCR) using ABI Biosystems. PCR products were then run on a 1% agarose gel, and visualized using ethidium bromide. PCR products were compared to Actb (encoding the β-actin gene) or GAPDH as the controls for gel loading.

IL-17RC [2] = test: IL-17RC gene expression by qPCR in IL-6/23-stimulated human neutrophils; format: cell-based; conditions: IL-6/23 1 h, FIG. 6B
Experimental: Neutrophils were isolated from peripheral blood of healthy donors. Peripheral blood was incubated in 3% Dextran, and neutrophils isolated by Ficoll gradient centrifugation (Fisher Scientific), with neutrophil purity determined by staining with Wright-Giemsa.
as §1, §2, §3

[3] = test system: bone marrow-derived murine neutrophils; test: ROS production (CFDA) by murine bone marrow neutrophils incubated with Aspergillus hyphae; format: cell-based, C57BL/6 mice; conditions: IL-6/23-stimulated, inhibitor 20 μM, FIG. 6C
Experimental: (§4) Murine and human neutrophils were incubated with p-STAT3 (20 μM Stattic or 20 μM INC424) or RORγt inhibitors (20 μM SR1001) for 2 h. Then the cells were stimulated with […] of rIL-6 and 2 μg/ml of rIL-23 for 3 h, washed, and 2×10^5 bone marrow-derived murine neutrophils or 10^5 human peripheral blood neutrophils, with or without recombinant IL-17A, were added to each well with growing hyphae. RPMI media was used as positive control (unimpaired growth), and PBS was used as a negative control (no growth (data not shown)). After 16 h the wells were washed with PBS and the dsRed fungal mass was quantified in a 96-well fluorometer at 550/600 nm excitation/emission filter (Synergy HT, Biotek).
(§5) In vitro ROS production measured by CFDA was previously described. Briefly, 100 μg/100 μl of A. fumigatus hyphal extract (AspHE) were incubated with 2×10^5 murine or human neutrophils. Neutrophils were treated for 1 h with 1 μM Carboxyfluorescein diacetate (H2CFDA (Sigma)), which will fluoresce following ROS oxidation. Neutrophils were collected and analyzed by flow cytometry. H2CFDA pulsed neutrophils that had not been incubated with AspHE were used to set the ROS histogram gate. The average mean intensity was calculated by Accuri flow software and graphed in Prism.

[4] = test system: human peripheral blood neutrophils; test: ROS production (CFDA) by human peripheral blood neutrophils incubated with Aspergillus hyphae; format: cell-based; conditions: IL-6/23-stimulated, inhibitor 20 μM, FIG. 6E
Experimental: as §4, §5

A. fumigatus hyphae [5] = test: In vitro fungal killing assay (hyphal coincubation) with murine neutrophils; format: cell-based, Aspergillus fumigatus; conditions: IL-6/23-stimulated, inhibitor 20 μM, FIG. 6D
Source text: (§6) Aspergillus strains—For cornea infections and in vitro fungal killing assays, an RFP expressing strain of A. fumigatus (Af-dsRed) was used. This strain is gpdA promoter driven to constitutively express monomeric dsRed. For subcutaneous “priming” injections, heat-killed, swollen conidia Aspergillus fumigatus strain Af-BP was used. For the Aspergillus hyphal extract used in ROS assay, A. fumigatus strain Af-BP hyphae were pulverized in liquid nitrogen, filtered through a 30 μm pre-separation filter (Miltenyi Biotec) and protein measured by the BCA method (Pierce). Aspergillus hyphal extracts (AspHE) were stored at −20° C. and used at a final concentration of 1 mg/ml.
(§7) A hyphal coincubation assay was used to study the ability of murine and human neutrophils to inhibit A. fumigatus hyphal growth as described. Briefly, 12,500 A. fumigatus dsRed expressing conidia (strain Af-dsRed) per 200 μl Sabouraud dextrose media were added to wells of black-walled 96 well plates with an optically clear bottom (CoStar 3720). After 6 h, the conidia had germinated and the hyphae became adherent to the wells, at which time the medium was removed.
as §4

A. fumigatus hyphae [6] = test: In vitro fungal killing assay (hyphal coincubation) with human neutrophils; format: cell-based, Aspergillus fumigatus; conditions: IL-6/23-stimulated, inhibitor 20 μM, FIG. 6F
Source text: as §6, §7, §4

Structure (SMILES)	IL-17 production in stimulated neutrophils (IL-17A)	IL-17RC expression (IL-17RC [1])	IL-17RC expression (IL-17RC [2])	ROS production ([3]; plus rIL-17A)	ROS production ([3]; without rIL-17A)	ROS production ([4]; plus rhIL-17A)	ROS production ([4]; without rhIL-17A)	hyphal killing activity (A. fumigatus hyphae [5]; plus rIL-17A)	hyphal growth (fluorescent fungal mass) (A. fumigatus hyphae [5]; without rIL-17A)	fluorescent fungal mass (A. fumigatus hyphae [6]; plus rhIL-17A)	fluorescent fungal mass (A. fumigatus hyphae [6]; without rhIL-17A)
CC(=O)Nc1nc(C)c(S(=O)(=O)Nc2ccc(C(O)(C(F)(F)F)C(F)(F)F)cc2)s1 [SR1001]	ablated	did not inhibit	did not inhibit	ROS production was increased	not increased above the level produced by naïve neutrophils	increased ROS	no increase in ROS	enhanced hyphal killing activity was detected	did not further impede hyphal growth	decreased fungal mass	no increase in ROS (FIG. 6E) or decrease in fluorescent fungal mass
N#CC[C@H](C1CCCC1)n1cc(-c2ncnc3[nH]ccc23)cn1 [INC424, Ruxolitinib]	–	did not inhibit	did not inhibit	–	–	–	–	–	–	–	–
